# Source: patent publication US20230391826A1, “COMPOSITIONS AND METHODS FOR TREATING DISEASES” (Sanford Burnham Prebys Medical Discovery Institute, priority 2020, published 2023)
# pKd: −log10 of the molar value.
# Assays:
# EphA2 = EphA2 (Homo sapiens, UniProt P29317); assay: EphA2 activation (Y588 phosphorylation) in cells by monomeric YSA derivatives; type: cell-based; set-up: EphA2 is the prevalent endogenously expressed EphA receptor in these cells; endogenous in cells; host or cells: PC3 prostate cancer cells
# From the text: However, as expected given their much higher potency, these two peptides are active at nanomolar concentrations. The C-terminal biotin promotes the agonistic activity of YSA derivative peptides. […] This is confirmed with the crystal structures. Thus, peptides with 1 to 7 residues between Prol 0, which is conserved in all YSA derivatives of Table 2, and the Lys-biotin residue, can all efficiently activate EphA2. […] Non-amidated β[…] has the ability to activate EphA2 in cells, even though the concentrations needed are about 10-fold higher than for the biotinylated peptide and the maximal […] phosphorylation induced by saturating peptide concentrations is about 40% lower. The C-terminally amidated version of the peptide loses the ability to activate EphA2, consistent with a role of the C-terminal negative charge for EphA2 activation even in the absence of biotin.
# EphA2 LBD = molecular target: T1, EphA2 LBD (Homo sapiens, UniProt P29317); conditions: previous studies, cited from earlier work
# T1 construct: made in house; host or cells: E. coli Origami 2(DE3)
# T1 sequence (P29317 28-200): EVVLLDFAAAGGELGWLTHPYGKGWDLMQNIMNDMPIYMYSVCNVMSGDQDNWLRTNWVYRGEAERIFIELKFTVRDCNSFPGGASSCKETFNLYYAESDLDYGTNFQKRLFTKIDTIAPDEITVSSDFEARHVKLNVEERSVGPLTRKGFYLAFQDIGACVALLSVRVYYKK
# Sequence of EphA2 (P29317 24-976): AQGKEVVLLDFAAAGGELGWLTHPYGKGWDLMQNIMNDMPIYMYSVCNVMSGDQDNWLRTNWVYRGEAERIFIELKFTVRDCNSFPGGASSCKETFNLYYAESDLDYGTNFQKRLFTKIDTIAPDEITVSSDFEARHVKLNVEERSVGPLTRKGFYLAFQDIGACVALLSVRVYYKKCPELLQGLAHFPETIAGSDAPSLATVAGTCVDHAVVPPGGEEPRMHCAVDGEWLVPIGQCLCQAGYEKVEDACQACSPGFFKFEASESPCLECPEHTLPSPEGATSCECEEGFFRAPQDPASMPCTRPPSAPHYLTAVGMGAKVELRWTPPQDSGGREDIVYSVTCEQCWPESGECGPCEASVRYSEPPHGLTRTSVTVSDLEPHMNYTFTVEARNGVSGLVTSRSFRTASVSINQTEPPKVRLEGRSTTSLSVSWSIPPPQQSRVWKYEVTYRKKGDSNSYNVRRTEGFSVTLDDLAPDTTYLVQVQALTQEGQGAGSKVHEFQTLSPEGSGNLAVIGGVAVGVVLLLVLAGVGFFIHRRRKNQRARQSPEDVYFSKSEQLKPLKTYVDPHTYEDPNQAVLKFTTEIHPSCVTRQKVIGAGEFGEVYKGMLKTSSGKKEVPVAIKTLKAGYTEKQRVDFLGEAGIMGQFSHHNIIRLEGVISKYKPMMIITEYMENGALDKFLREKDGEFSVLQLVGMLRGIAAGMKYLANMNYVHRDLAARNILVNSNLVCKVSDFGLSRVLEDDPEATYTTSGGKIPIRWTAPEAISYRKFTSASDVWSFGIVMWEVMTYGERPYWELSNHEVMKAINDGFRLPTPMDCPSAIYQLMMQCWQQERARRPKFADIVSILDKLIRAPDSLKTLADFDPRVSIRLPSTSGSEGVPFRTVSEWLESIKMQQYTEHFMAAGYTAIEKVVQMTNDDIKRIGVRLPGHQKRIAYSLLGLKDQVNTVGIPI
structure (smiles),measurement,setting,value
CC(C)C[C@H](NC(=O)[C@H](Cc1c[nH]c2ccccc12)NC(=O)CCN)C(=O)N[C@@H](C)C(=O)N[C@@H](Cc1ccc(O)cc1)C(=O)N1CCC[C@H]1C(=O)N[C@@H](CC(=O)O)C(=O)N[C@@H](CO)C(=O)N[C@H](C(=O)N1CCC[C@H]1C(=O)N[C@@H](Cc1ccc(O)cc1)C(=O)N[C@@H](CCCNC(=N)N)C(=O)N1CCC[C@H]1C(=O)N[C@@H](CCCCN)C(=O)O)C(C)C [βA-WLA-YRPK],"maximal Y588 phosphorylation at saturating peptide concentrations, lower than the biotinylated peptide",EphA2,about 40%
same,concentrations needed to activate EphA2 in cells relative to the biotinylated peptide,EphA2; higher than for βA-WLA-YRPK-bio,about 10 fold
same,improvement of binding affinity compared to monomeric YSA-GSGSK-bio,EphA2 LBD,50 fold
same,pKd,EphA2 LBD; read-out: binding affinity for the EphA2 LBD measured by ITC,~6.70
